Consider two compounds from ChEMBL document CHEMBL1130253 (J Med Chem, 1997).

The test system of one series is CCRF-CEM. The series is described as follows: Concentration required to inhibit against HIV strain IIIB in CEM cell. The series is classed as functional. The conditions noted are these: Homo sapiens, read-out: ED50 (the source's name).
Series [1] can be described thus: Minimum cellular toxicity against the HIV strain IIIB in CEM cells was determined. The series is classed as cell-based, CCRF-CEM. The conditions noted are these: human, read-out: TD50 (the source's name).

With `Cc1c(O)cccc1C(=O)N[C@@H](CSc1ccc2ccccc2c1)[C@H](O)Cc1ccccc1C(=O)NC(C)(C)C`, in the series with CCRF-CEM, the EC50 is 970 nM.

In the case of `Cc1c(O)cccc1C(=O)N[C@@H](Cc1ccccc1)[C@H](O)CN1C[C@H]2CCCC[C@H]2C[C@H]1C(=O)NC(C)(C)C`, the CC50 in series [1] was more than 5000 nM. Also, the EC50 in the series with CCRF-CEM was 33 nM.
